US9669100B2, “Polymer support for the distribution of a naturally crystalline substance and production method” (priority 2013, dated 2017)

What was measured:
[1] = Solubilisation of naturally crystalline substances in the solvent mixture (dibasic esters / dimethyl isosorbide); format: physicochemical; details: solvent mixture solvent/cosolvent
[2] = Stability of the active solution (limpid, no recrystallisation); format: physicochemical; details: ESTASOL/ARLASOLVE DMI plus refined coconut oil; after stirring (30 min Example 1, 20 min Example 3)
Method: In a 1 liter beaker, the following products are successively introduce with stirring:
And then introduce by sprinkling while still stirring:
After completely dissolving, pour while still stirring:
300 g refined coconut oil.
In a 1 liter beaker, the following are successively added under stirring:
100 g refined coconut oil.
All is stirred for 20 minutes until the active solution becomes limpid.

Compound: CNC(=O)Oc1ccccc1OC(C)C [Propoxur]
- concentration dissolved in a stable manner in the solvent mixture [1]: 56 % by weight of solution

Compound: Cn1c(=O)c2c(ncn2C)n(C)c1=O [Caffeine]
- state of the active solution after preparation [2]: does not recrystallise

Compound: CC1(C)[C@H](C(=O)O[C@H](C#N)c2cccc(Oc3ccccc3)c2)[C@@H]1C=C(Br)Br [Deltamethrin]
- maximum concentration possible without recrystallization in the active solution ([1]; cold solution, even at low temperature): ≤ 20 % by weight
